# According to patent publication US4067997A, “Synergistic microbecidal composition and method” (priority 1976, dated 1978):
# Where two headings read alike, the source gives them in different places.
# Assays:
# Streptococcus Group A = assay: MIC, broth dilution (Examples I/II); type: cell-based, beta-hemolytic streptococci Group A
# Description: (§1) In order to establish comparative bactericidal and fungicidal results with homologous fatty acids, a series of experiments was performed with thirty straight-chain fatty acids and derivatives thereof. Eight different gram-negative and twelve different gram-positive organisms, representing a very broad spectrum of organisms, were used in these experiments including the fungus Candida (a yeast). Additionally, fatty acids were chosen to show the effects of saturation versus unsaturation, in the fatty acid claim. Standard solutions of the fatty acids and their derivatives were prepared by first dissolving the weighed compounds in 1 to 2 ml of 95% ethanol and immediately pouring this solution into 200 ml of Tripticase Soy Broth. These lipid compounds which are insoluble in water and broth precipitated into very small crystals or droplets. The tubes containing the suspension were warmed to approximately 70° C and were then placed in an ultrasonic tank for further solubilization of the lipid derivatives.
# (§2) Standard solutions (or suspensions) at 1,000 μg/ml were twofold serially diluted with additional broth to a concentration of 125 μg/ml. A 4-ml amount of each dilution was then quickly, and with constant agitation, dispensed into appropriately labeled screw-capped glass tubes (16 by 125 mm). The tubes were sterilized with steam at 15 psi for 15 minutes. After sterilization, all tubes were cooled and incubated overnight at 35° C to insure sterility.
# (§3) All compounds were compared on a molar (micromoles/milliliter) rather than on a mass basis. In the following lists of organisms used, those followed by a parenthetical number are registered with the American Type Culture Collection (ATCC); the remainder were isolates from Providence Hospital or Northland Laboratory.
# (§4) One drop (0.04 ± 0.01 ml) of an 18-hr broth culture containing 10^7 and 10^9 organisms/ml was added to each dilution of the test compound, as well as to a tube of plain broth which served as the positive control. After inoculation, the contents of each tube were well mixed, and the tubes were incubated at 35° C in a 5% carbon dioxide + […] atmosphere.
# (§5) The MIC is defined as the lowest concentration of compound at which no […] evidence of growth was observed when turbidity of the inoculated broth dilutions was compared with control tubes. […] Only a one-tube difference between the bactericidal and bacteriostatic concentrations was normally observed.
# (§6) Standard solutions (1000 μg/ml) of three fatty acids and polyglycerol esters thereof were prepared as described in Example I. Also sucrose esters were prepared by transferring the weighed compounds (0.2 gm. dissolved in 1 ml absolute methanol) into 200 ml of sterile Trypticase Soy Broth (TSB). These standard solutions (1000 μg/ml) were twofold serially diluted with additional sterile broth to a concentration of 125 μg/ml. A 3.8 aliquot of each dilution was asceptically delivered into sterile screw-capped culture tubes. All tubes were incubated overnight at 36° C to insure sterility. The microorganisms used in this example were the same as those used in Example I.
# (§7) The inoculum, 0.05 ml of an 13-24 hour TSB culture (approximately 10^9 organisms/ml) was asceptically delivered into all dilutions of the compounds, mixed well, and incubated at 36° C. A tube of inoculated broth without the compound served as a positive control and an uninoculated set of dilutions incubated along with the test dilutions, served as a negative control.
# (§8) In those cases in which the test compound itself caused turbidity, an aliquot (0.015 ml) of the mixed broth was inoculated onto an agar plate and incubated at 36° C for examination, as described in Example I. The control procedure of Example I was also repeated. The lauric, capric, and oleic acids were used as internal controls and for comparison to Example I. The minimal inhibitory concentrations (μmole/ml) for the compounds studied are given in Tables 7 and 8.
# [1] = tested on: Streptococcus β-hemolytic Non-A; assay: MIC, broth dilution (Examples I/II); type: cell-based, beta-hemolytic streptococci non-group A
# Description: as §1, §2, §3, §4, §5, §6, §7, §8
# Corynebacteria = assay: MIC, broth dilution (Examples I/II); type: cell-based, Corynebacterium sp. (10700)
# Description: as §1, §2, §3, §4, §5, §6, §7, §8
# Micrococci = assay: MIC, broth dilution (Examples I/II); type: cell-based, Micrococcus sp.
# Description: as §1, §2, §3, §4, §5, §6, §7, §8
# S. aureus = assay: MIC, broth dilution (Examples I/II); type: cell-based, Staphylococcus aureus
# Description: as §1, §2, §3
# One drop (0.04 ± 0.01 ml) of an 18-hr broth culture containing 10^7 and 10^9 organisms/ml was added to each dilution of the test compound, as well as to a tube of plain broth which served as the positive control. […]
# S. epidermidis = assay: MIC, broth dilution (Examples I/II); type: cell-based; details: Table 7, Staph epider.; > = no inhibition, max. tested
# Description: as §1, §2, §3, §4, §5, §6, §7, §8
# Streptococcus Group D = assay: MIC, broth dilution (Examples I/II); type: cell-based; details: Table 7, Strep. Grp. D; > = no inhibition, max. tested
# Description: as §1, §2, §3, §4, §5, §6, §7, §8
# Sarcina = assay: MIC, broth dilution (Examples I/II); type: cell-based, Sarcina lutea (9431); details: Table 7, Sarcina; > = no inhibition, max. tested
# Description: as §1, §2, §3, §4, §5, §6, §7, §8
# [2] = tested on: nine gram-positive organisms and the yeast/fungus Candida; assay: MIC, broth dilution, over all organisms (Examples I/II); type: cell-based
# Description: as §1, §2, §3
# Staphylococcus aureus, S. epidermidis, beta-hemolytic streptococci (Group A and non-group A), group D streptococcus, Bacillus subtilis (6051), Sarcina lutea (9431), Micrococcus sp., Candida albicans, Nocardia asteroids (3308), Corynebacterium sp. (10700), and pneumococcus (63001).
# as §4, §5
# Table 5 presents a comparison of the C10 and C12 free acids and their glyceryl derivatives, and Table 6 gives the corresponding ranges of activity.
# as §6
# The inoculum, 0.05 ml of an 13-24 hour TSB culture (approximately 10^9 organisms/ml) was asceptically delivered into all dilutions of the compounds, mixed well, and incubated at 36° C. […]
# S. pyogenes = assay: Growth curve by optical density (Example IV, FIG. 3); type: cell-based, streptococcus pyogenes; details: 24 hours
# Description: To a series of containers is added 40 ml of Trypticase Soy Broth and 0.5 ml of streptococcus pyogenes (10^8 organisms/ml). To respective containers are added the following: (1) 10 μg of glycerol 1-mono-laurinand 10 μg of glycerol dilaurin; (2) 5 μg of glycerol 1-mono-laurin and 5 μg of glycerol dilaurin; (3) 10 μg of glycerol 1-mono-laurin; and (4) 5 μg of glycerol 1-mono-laurin; and (5) a control without any additives. The rate of growth of the S. pyogenes was followed for 24 hours at 6 hour intervals by reading the optical density of the cultures at […] in a spectrophotometer.
# Aspergillus niger = assay: MIC, agar dilution method (Example XVI); type: cell-based
# Text: (§9) In a manner similar to that described in Example V, the effectiveness of certain food-grade microbecides are compared with mono-esters in an agar dilution method. The very favorable results may be noted from Table 19.
# Bacillus subtilis = assay: MIC, agar dilution method (Example XVI); type: cell-based
# Text: as §9
# Canadida albicans = assay: MIC, agar dilution method (Example XVI); type: cell-based
# Text: as §9
# Escherichia coli = assay: MIC, agar dilution method (Example XVI); type: cell-based
# Text: as §9
# Pseudomonas aeruginosa = assay: MIC, agar dilution method (Example XVI); type: cell-based
# Text: as §9
# Staphylococcus aureus = assay: MIC, agar dilution method (Example XVI); type: cell-based
# Text: as §9
# Group A Strep. = assay: MIC of potassium soaps of unsaturated fatty acids (Example III); type: cell-based, Group A β-hemolytic Streptococci; details: Table 10, Group A Strep.
# Pneumococci = assay: MIC, broth dilution (Examples I/II); type: cell-based, pneumococcus (63001); details: Table 1, Pneumococci
# Description: as §1, §2, §3, §4, §5, §6, §7, §8
# Nocardia asteroides = assay: MIC, broth dilution (Examples I/II); type: cell-based, Nocardia asteroids (3308); details: Table 1, Nocardia asteroides
# Description: as §1, §2, §3, §4, §5, §6, §7, §8
# [3] = Aspergillus niger, Table 19, agar dilution, read-out: MIC
# [4] = Bacillus subtilis, Table 19, agar dilution, read-out: MIC
# [5] = Table 19, agar dilution, read-out: MIC
# [6] = Escherichia coli, Table 19, agar dilution, read-out: MIC
# [7] = Pseudomonas aeruginosa, Table 19, agar dilution, read-out: MIC
# [8] = Staphylococcus aureus, Table 19, agar dilution, read-out: MIC
compound,measurement,setting,value
Triglycerol monocaprate,MIC,"Streptococcus Group A; Table 7, Strep. Grp. A",150 µM
same,MIC,"[1]; Table 7, Strep. β-hemo. Non-A",630 µM
same,MIC,"Corynebacteria; Table 7, Cornebacteria",320 µM
same,MIC,"Micrococci; Table 7, Micrococci",1260 µM
same,MIC,"S. aureus; Table 7, Staph aureus, > = no inhibition, max. tested",> 2500 µM
same,MIC,S. epidermidis,> 2500 µM
same,MIC,Streptococcus Group D,> 2500 µM
same,MIC,Sarcina,2500 µM
CCCCCCCCCCCC(=O)OCC(O)CO (stereo not shown) [1-mono-laurin],Activity relative to 2-mono-laurin,[2],as active as the 2-mono-laurin
same,Activity in words,[2]; Table 6 footnote,Highly active on all organisms except streptococcus Group D
same,Antimicrobial activity in words (growth curve),S. pyogenes,responsible for all antimicrobial activity
same,MIC,Aspergillus niger; Aspergillus niger,> 2500 mg/L
same,MIC,Bacillus subtilis; Bacillus subtilis,39 mg/L
same,MIC,Canadida albicans,> 2500 mg/L
same,MIC,Escherichia coli; Escherichia coli,> 2500 mg/L
same,MIC,Pseudomonas aeruginosa; Pseudomonas aeruginosa,> 2500 mg/L
same,MIC,Staphylococcus aureus; Staphylococcus aureus,39 mg/L
COC(=O)c1ccc(O)cc1 [Methyl paraben],MIC,Aspergillus niger; [3],2500 mg/L
same,MIC,Bacillus subtilis; [4],5000 mg/L
same,MIC,Canadida albicans; [5],2500 mg/L
same,MIC,Escherichia coli; [6],2500 mg/L
same,MIC,Pseudomonas aeruginosa; [7],5000 mg/L
same,MIC,Staphylococcus aureus; [8],5000 mg/L
CCCCCC=CCCCC=CCCCCCC(=O)O [.increment.^7 12],MIC,Group A Strep.,20 µM
CCCCCC/C=C\CCCCCCCC(=O)[O-].[Na+] [Palmitoleic acid sodium salt],MIC,Aspergillus niger; Aspergillus niger,> 1000 mg/L
same,MIC,Bacillus subtilis; Bacillus subtilis,500 mg/L
same,MIC,Canadida albicans,> 1000 mg/L
same,MIC,Escherichia coli; Escherichia coli,> 1000 mg/L
same,MIC,Pseudomonas aeruginosa; Pseudomonas aeruginosa,> 1000 mg/L
same,MIC,Staphylococcus aureus; Staphylococcus aureus,15.6 mg/L
CCCOC(=O)c1ccc(O)cc1 [Propyl paraben],MIC,Aspergillus niger; [3],2500 mg/L
same,MIC,Bacillus subtilis; [4],2500 mg/L
same,MIC,Canadida albicans; [5],2500 mg/L
same,MIC,Escherichia coli; [6],5000 mg/L
same,MIC,Pseudomonas aeruginosa; [7],> 10000 mg/L
same,MIC,Staphylococcus aureus; [8],2500 mg/L
CCCCC/C=C/CC/C=C/CCCCCCC(=O)O [.increment.^8 12],MIC,Group A Strep.,20 µM
Decaglycerol monolaurate,MIC,"Streptococcus Group A; Table 7, Strep. Grp. A",260 µM
same,MIC,"[1]; Table 7, Strep. β-hemo. Non-A",530 µM
same,MIC,"Corynebacteria; Table 7, Cornebacteria",530 µM
same,MIC,"Micrococci; Table 7, Micrococci",530 µM
same,MIC,S. epidermidis,> 1060 µM
same,MIC,Streptococcus Group D,> 1060 µM
same,MIC,Sarcina,> 1060 µM
CCCCCCCC=CCCC=CCCCCC(=O)O [.increment.^6 10],MIC,Group A Strep.,10 µM
CC/C=C\C/C=C\C/C=C\CCCCCCCC(=O)O [Linolenic],MIC,Pneumococci,179 µM
same,MIC,"Streptococcus Group A; Table 1, Streptococcus Group A",350 µM
same,MIC,"[1]; Table 1, Streptococcus β-hemolytic Non-A",350 µM
same,MIC,"Corynebacteria; Table 1, Corynebacteria",179 µM
same,MIC,Nocardia asteroides,488 µM
same,MIC,"Micrococci; Table 1, Micrococci",488 µM
same,MIC,"S. aureus; Table 1, S. aureus",1790 µM
C[CH2][Hg][S]c1ccccc1C(=O)[O-].[Na+] [Thimerosal],MIC,"Aspergillus niger; Table 19, agar dilution",0.10 mg/L
same,MIC,"Bacillus subtilis; Table 19, agar dilution",0.39 mg/L
same,MIC,"Canadida albicans; Table 19, agar dilution",0.10 to 0.20 mg/L
same,MIC,"Escherichia coli; Table 19, agar dilution",1.60 mg/L
same,MIC,"Pseudomonas aeruginosa; Table 19, agar dilution",6.30 to 12.50 mg/L
same,MIC,"Staphylococcus aureus; Table 19, agar dilution",0.78 mg/L
